Each structure is given as a SMILES string. Bounds are passed on as bounds.

Assay [1] concerns the target T1, Transcription intermediary factor 1-alpha (Homo sapiens) (UniProt O15164).
T1 sequence (whole entry): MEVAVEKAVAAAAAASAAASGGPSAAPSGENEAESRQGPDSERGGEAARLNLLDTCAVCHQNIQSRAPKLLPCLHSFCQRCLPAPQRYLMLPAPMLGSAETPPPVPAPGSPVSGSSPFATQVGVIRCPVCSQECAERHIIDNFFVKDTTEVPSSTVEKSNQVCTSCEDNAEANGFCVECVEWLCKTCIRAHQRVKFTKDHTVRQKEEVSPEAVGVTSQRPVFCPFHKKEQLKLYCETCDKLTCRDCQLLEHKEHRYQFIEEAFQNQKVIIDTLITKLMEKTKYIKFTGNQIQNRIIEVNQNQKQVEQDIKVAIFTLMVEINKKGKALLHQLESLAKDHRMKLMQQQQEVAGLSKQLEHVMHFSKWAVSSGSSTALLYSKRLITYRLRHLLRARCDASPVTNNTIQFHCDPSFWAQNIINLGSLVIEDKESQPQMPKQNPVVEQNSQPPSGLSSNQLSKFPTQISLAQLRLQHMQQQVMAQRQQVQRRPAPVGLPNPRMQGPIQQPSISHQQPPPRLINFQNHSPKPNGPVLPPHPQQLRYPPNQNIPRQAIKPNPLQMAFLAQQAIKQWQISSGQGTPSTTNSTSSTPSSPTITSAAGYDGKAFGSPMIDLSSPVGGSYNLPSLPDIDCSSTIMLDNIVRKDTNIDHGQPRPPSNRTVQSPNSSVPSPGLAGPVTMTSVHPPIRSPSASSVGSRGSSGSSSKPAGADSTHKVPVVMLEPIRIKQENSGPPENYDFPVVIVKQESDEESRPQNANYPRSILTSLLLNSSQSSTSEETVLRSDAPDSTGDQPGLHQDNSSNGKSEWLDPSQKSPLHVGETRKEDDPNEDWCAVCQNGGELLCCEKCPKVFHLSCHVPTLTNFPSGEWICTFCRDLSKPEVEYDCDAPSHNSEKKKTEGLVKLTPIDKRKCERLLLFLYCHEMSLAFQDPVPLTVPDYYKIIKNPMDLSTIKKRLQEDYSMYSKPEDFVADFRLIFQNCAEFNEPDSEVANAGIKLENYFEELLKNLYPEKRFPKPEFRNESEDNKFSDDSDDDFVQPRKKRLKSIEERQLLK
The assay is described as follows: Binding affinity to TRIM24 (unknown origin) using biotinylated histone peptide H4 as substrate at 1 uM incubated for 2 hrs by AlphaScreen assay relative to control.

In assay [2] the target is SWI/SNF-related matrix-associated actin-dependent regulator of chromatin subfamily A member 4 (Homo sapiens) (UniProt P51532). The note with it: time 30.0 min.
Sequence of SWI/SNF-related matrix-associated actin-dependent regulator of chromatin subfamily A member 4 (Homo sapiens) (P51532 whole entry): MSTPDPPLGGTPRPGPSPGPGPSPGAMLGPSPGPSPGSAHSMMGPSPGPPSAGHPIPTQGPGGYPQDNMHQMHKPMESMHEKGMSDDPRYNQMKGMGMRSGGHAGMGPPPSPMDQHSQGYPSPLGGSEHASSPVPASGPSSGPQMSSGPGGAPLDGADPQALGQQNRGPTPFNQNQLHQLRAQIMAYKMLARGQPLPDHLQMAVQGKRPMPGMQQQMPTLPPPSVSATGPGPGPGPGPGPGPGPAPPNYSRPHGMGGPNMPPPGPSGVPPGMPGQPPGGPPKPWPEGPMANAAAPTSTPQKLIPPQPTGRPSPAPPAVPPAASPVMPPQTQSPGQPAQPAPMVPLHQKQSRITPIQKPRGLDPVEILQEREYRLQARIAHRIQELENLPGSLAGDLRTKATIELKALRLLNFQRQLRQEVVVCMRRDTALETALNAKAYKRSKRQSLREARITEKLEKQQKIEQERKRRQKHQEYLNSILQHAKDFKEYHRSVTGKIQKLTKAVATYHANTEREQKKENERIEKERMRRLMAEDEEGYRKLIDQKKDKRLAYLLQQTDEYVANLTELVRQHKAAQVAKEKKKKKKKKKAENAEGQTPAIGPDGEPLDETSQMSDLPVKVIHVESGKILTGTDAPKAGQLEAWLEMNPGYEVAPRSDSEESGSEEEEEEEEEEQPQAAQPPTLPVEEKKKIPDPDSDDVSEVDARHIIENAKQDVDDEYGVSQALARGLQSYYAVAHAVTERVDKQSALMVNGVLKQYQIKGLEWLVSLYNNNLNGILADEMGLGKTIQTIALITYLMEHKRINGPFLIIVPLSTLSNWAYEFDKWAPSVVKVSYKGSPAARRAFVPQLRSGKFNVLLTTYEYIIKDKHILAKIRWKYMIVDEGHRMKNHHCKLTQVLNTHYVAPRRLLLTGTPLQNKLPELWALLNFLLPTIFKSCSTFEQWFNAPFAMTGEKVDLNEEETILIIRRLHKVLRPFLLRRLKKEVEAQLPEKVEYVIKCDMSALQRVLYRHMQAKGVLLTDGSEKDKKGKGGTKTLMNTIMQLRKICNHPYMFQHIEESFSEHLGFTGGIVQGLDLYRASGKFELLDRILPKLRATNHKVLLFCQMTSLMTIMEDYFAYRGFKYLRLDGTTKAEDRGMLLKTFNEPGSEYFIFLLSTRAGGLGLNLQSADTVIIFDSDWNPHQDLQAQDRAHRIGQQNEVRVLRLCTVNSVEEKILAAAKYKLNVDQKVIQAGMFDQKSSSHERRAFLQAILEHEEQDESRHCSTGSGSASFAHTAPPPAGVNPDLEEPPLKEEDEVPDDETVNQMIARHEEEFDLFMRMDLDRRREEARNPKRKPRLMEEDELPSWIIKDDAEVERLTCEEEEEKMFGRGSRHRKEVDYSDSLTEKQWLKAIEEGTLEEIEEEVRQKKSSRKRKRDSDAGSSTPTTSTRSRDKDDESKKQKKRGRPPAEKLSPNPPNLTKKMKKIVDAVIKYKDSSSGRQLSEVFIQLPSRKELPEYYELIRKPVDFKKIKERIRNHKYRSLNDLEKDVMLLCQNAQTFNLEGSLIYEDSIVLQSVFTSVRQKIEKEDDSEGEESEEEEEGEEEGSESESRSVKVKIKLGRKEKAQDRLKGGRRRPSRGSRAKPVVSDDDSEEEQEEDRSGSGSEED
Assay [3] has as its target Transcription initiation factor TFIID subunit 1 (Homo sapiens) (UniProt P21675). The note with it: time 30.0 min.
For assay [4], the species on record is Homo sapiens. The experiment in a line: Binding affinity to PHIP2 (unknown origin) using biotinylated histone peptide H4 as substrate at 1 uM incubated for 2 hrs by AlphaScreen assay relative to control.
Assay [5] has as its target T2, Bromodomain-containing protein 9 (Homo sapiens) (UniProt Q9H8M2).
T2 sequence (whole entry): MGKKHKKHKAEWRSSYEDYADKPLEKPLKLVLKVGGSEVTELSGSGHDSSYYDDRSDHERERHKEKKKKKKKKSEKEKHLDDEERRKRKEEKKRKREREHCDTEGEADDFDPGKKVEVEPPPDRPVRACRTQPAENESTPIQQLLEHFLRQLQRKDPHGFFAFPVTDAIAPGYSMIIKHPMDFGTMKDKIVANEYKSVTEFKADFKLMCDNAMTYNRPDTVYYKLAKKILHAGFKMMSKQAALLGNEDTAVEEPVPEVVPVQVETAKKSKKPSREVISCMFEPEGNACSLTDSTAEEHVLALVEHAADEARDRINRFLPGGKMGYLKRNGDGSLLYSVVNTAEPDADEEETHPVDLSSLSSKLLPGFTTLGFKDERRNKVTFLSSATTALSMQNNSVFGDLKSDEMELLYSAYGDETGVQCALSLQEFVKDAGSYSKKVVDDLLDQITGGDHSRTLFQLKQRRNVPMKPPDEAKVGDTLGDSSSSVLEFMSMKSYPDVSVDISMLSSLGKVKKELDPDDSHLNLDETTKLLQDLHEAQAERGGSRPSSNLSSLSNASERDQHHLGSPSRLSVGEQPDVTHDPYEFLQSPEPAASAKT
The note with it: time 30.0 min.

The target of assay [6] is CREB-binding protein (Homo sapiens) (UniProt Q92793). The note with it: time 30.0 min.
Sequence of CREB-binding protein (Homo sapiens) (Q92793 2-2442 limits assumed): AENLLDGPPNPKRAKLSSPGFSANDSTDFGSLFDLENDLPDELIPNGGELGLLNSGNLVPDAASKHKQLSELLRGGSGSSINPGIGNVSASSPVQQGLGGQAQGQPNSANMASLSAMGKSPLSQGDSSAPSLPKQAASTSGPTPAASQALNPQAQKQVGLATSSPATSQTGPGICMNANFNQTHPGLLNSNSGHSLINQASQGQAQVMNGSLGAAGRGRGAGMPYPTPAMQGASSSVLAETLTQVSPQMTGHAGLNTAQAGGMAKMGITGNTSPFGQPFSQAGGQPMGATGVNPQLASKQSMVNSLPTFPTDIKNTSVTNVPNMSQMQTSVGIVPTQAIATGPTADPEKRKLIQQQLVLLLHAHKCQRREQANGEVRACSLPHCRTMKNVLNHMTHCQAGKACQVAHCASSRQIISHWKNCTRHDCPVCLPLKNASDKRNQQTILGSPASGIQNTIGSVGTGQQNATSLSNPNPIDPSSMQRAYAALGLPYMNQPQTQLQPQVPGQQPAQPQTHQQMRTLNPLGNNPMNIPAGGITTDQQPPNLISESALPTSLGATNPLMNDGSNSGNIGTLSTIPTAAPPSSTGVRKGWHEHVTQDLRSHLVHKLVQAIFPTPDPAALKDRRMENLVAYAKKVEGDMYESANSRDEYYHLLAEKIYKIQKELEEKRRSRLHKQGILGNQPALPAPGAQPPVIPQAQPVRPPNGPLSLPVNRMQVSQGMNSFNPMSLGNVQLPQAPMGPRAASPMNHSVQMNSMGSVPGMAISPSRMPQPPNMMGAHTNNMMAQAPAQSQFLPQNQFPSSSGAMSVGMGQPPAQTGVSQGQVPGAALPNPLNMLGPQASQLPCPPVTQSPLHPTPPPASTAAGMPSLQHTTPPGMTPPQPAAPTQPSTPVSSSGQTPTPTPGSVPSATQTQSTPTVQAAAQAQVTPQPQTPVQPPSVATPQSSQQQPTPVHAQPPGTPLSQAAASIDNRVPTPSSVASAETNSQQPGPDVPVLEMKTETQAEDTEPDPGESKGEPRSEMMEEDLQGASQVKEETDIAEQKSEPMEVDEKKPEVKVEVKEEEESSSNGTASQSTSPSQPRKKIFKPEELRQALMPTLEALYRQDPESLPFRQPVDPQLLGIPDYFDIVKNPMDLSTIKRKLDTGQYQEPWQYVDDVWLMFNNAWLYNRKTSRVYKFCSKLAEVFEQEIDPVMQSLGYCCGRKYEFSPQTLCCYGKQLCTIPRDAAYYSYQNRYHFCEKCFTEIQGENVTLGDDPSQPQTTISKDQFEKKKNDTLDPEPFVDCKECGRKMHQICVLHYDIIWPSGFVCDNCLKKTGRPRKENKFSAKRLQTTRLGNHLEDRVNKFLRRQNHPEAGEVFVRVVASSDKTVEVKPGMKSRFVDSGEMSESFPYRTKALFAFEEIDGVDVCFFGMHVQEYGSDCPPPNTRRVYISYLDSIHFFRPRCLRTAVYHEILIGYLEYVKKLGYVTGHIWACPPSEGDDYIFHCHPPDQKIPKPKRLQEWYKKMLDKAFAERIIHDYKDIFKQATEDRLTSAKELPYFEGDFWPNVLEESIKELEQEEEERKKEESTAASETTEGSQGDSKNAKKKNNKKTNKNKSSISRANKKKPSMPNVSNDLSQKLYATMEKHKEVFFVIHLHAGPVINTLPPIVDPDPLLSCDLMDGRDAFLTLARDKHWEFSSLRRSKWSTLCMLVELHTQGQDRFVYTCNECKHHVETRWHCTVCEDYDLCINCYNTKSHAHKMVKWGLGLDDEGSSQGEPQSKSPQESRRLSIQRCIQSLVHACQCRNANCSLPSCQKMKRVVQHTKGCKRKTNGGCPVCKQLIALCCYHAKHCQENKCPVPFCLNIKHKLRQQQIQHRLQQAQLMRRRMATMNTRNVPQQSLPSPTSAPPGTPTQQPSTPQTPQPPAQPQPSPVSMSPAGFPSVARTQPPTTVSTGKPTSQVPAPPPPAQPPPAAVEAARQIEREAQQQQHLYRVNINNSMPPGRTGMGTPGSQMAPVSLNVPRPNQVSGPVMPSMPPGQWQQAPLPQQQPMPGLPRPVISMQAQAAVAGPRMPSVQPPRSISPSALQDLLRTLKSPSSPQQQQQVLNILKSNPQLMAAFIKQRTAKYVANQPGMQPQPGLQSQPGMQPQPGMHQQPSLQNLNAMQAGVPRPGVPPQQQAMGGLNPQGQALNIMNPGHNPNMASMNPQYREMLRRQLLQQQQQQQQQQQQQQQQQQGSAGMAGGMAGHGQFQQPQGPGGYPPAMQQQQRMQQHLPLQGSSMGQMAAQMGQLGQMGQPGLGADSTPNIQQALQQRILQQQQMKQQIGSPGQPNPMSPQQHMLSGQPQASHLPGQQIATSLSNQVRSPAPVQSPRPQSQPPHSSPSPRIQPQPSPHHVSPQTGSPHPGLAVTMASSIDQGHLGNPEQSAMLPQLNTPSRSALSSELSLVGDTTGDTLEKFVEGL

As to `COc1cc2c(cc1-c1c(C)noc1C)ncc1nc(C)n([C@H](C)c3ccccc3)c12`, the Activity in assay [1] and in assay [4] was < 30% throughout. Also, the ΔTm in assay [2] came to 0 °C; in assay [3] it was 0 °C; in assay [5] it was 0 °C; in assay [6], 5 °C.

For `COc1cc2c(cc1-c1c(C)n[nH]c1C)ncc1nc(C)n([C@H](C)c3ccccc3)c12`, the Activity in assay [1] and in assay [4] was < 30% in each case. Besides, the ΔTm in assay [2], in assay [3], in assay [5] and in assay [6] was 0 °C in each case.

(Values after ChEMBL document CHEMBL5532655, “Discovery of (R)-4-(8-methoxy-2-methyl-1-(1-phenylethy)-1H-imidazo[4,5-c]quinnolin-7-yl)-3,5-dimethylisoxazole as a potent and selective BET inhibitor for treatment of acute myeloid leukemia (AML) guided by FEP calculation” (Eur J Med Chem, 2024).)
